Measured values published in patent US11680060B2, “Bicycloheptane pyrrolidine orexin receptor agonists” (Merck Sharp & Dohme LLC, priority 2020, dated 2023).

Target: human OX2R (Homo sapiens (Human), UniProt O43614)
Assay: IPOne (IP-1) assay in CHO cells expressing human OX2R
Assay type: cell-based
Settings: for Emax: CHO, read-out: Emax (%); for Emax / Emax (%): percentage of mean max effect of a reference compound at 1 uM (100% activity by comparison to Orexin A), human OX2R; for IC50: CHO cells expressing human OX2R, IP-One detection, 2 hours incubation, EC50 = inflection point of four parameter logistic fit, read-out: hOX2R_IP_IC50
Text: The utility of the compounds in accordance with the present invention as orexin receptor OX1R and/or OX2R agonists may be readily determined without undue experimentation by methodology well known in the art. Both the OX1R and/or OX2R G-coupled protein receptors (GPCRs) couple through the Gαq signaling pathway, which ultimately promotes calcium mobilization via inositol triphosphate (IP3) production. The half-life of IP-3 is relatively short, being rapidly metabolized to inositol monophosphate (IP-1), which can be readily detected using a commercially available assay kit (IP-One; Cisbio; cat #621PAPEC) coupled with a cell line expressing the target receptor(s) of interest. The utility of the compounds in accordance with the present invention as orexin receptor OX1R and/or OX2R agonists may be determined utilizing this assay.
In a typical experiment, the OX1 and OX2 receptor agonist activity is determined in accordance with the following general experimental method. Chinese hamster ovary (CHO) cells expressing human OX1R and/or the human OX2R were grown in Iscove's modified DMEM containing glutaMAX™, 1% G418, 100 U/mL penicillin, 100 μg/mL streptomycin and 10% heat-inactivated qualified fetal bovine serum (FBS). The OX2R cells were seeded at 10,000 cells/well/50 μL and the OX1R cells were seeded at 20,000 cells/well/50 μL into 384-well white tissue culture plates (Greiner; cat #781080). All cell/media reagents were from GIBCO-Invitrogen Corp. The seeded cell plate(s) were incubated at 37° C. with 5% CO2 and 85% humidity for 20-24 hours. On the day of the assay, assay-ready compound plates were prepared using an acoustic liquid handler (ECHO; Labcyte), which dispensed sufficient volume of test compound stock (10 mM in DMSO) or 100% DMSO to prepare 10 point, ½-log dilutions in a final volume of 202.5 nL/well in all test wells of a 384-well diamond plate (Labcyte). Following completion of assay-ready plates, importantly, the next three steps were performed with minimal delay: 1) 20 μl of 1× stimulation buffer was added to the compound plate using a Multidrop Combi (small cassette, Thermo Fisher Scientific cat #24073290); 2) culture medium was removed from the cell plate using the Bluewasher plate washer (gentle spin; BlueCatBio); 3) 14 μl of compound/stimulation buffer mixture was added to the cell plate using a Bravo liquid handler (Agilent) prior to incubating cell plates at 37° C. with 5% CO2 and 85% humidity for 1 or 2 hours (OX1R and OX2R, respectively). During this incubation, IP-one detection reagents were prepared (38:1:1 lysis buffer:D2:AB-cryptate reagents). Six μL of mixed detection reagents were added to the cell plate using a Multidrop Combi (small cassette, Thermo Fisher Scientific cat #24073290) and incubated 60 minutes at room temperature in the dark. Fluorescence signal was detected using an Envision plate reader (Perkin Elmer) [LANCE/DELFIA Dual Enh (Em: APC 665; Ex: Cy5 620)].
For each compound, data were fit to a four parameter logistic fit (ActivityBase software) and the EC50 was reported as the inflection point of the resulting curve. Percent effect for each test compound was determined as the percentage of sample raw value/mean max effect, where the mean max effect was derived from the mean raw value of 32 control wells per assay plate (using Orexin A (cat #003-30) at 1 μM for human OX1R and a reference compound at 1 uM with 100% activity previously established by comparison to Orexin A for human OX2R). The intrinsic orexin receptor agonist activity of a compound which may be used in the present invention may be determined by these assays.

Sequence of human OX2R (O43614 whole entry): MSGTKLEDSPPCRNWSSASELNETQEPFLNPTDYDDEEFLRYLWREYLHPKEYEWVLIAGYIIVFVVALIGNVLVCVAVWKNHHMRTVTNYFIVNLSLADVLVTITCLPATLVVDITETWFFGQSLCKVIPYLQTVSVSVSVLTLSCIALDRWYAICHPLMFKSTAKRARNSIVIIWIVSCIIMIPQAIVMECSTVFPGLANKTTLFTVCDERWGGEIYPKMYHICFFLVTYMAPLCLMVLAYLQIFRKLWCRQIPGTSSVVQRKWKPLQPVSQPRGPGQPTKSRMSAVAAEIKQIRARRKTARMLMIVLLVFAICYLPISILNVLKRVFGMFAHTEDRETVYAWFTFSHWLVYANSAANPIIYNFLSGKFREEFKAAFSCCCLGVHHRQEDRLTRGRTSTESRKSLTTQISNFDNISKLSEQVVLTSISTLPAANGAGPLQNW

Compound | Emax [%] | IC50 [nM] | Emax (%)
COC(=O)N1[C@@H]2COC[C@@H]2C(NS(C)(=O)=O)[C@@H]1COC1CCC2(c3ncc(F)cn3)CC2C1 (mixture of isomers) [Example 134, Methyl (2R,3aS,6aS)-2-(((6-(5-fluoropyrimidin-2-yl)bicyclo[4.1.0]heptan-3-yl)oxy)methyl)-3-(methylsulfonamido)hexahydro-1H-furo[3,4-b]pyrrole-1-carboxylate] | 99.7 |  | 
COC(=O)N1[C@H](C)C[C@H](NS(=O)(=O)N(C)C)[C@@H]1COC1CCC2(c3cccc(F)c3)CC2C1 (mixture of isomers) [Example 3, methyl (2R,3S,5R)-3-((N,N-dimethylsulfamoyl)amino)-2-(((6-(3-fluorophenyl)bicyclo[4.1.0]heptan-3-yl)oxy)methyl)-5-methylpyrrolidine-1-carboxylate] | 99.9 |  | 
CC(C)OC(=O)N1[C@H](C)C[C@H](NS(C)(=O)=O)[C@@H]1COC1CCC2(c3ncc(F)cn3)CC2C1 (mixture of isomers) [Example 26, isopropyl (2R,3S,5R)-2-(((6-(5-fluoropyrimidin-2-yl)bicyclo[4.1.0]heptan-3-yl)oxy)methyl)-5-methyl-3-(methylsulfonamido)pyrrolidine-1-carboxylate] | 101 | 11.4 | 
COC(=O)N1[C@H](C)C[C@H](NS(=O)(=O)C(F)F)[C@@H]1COC1CCC2(c3ncccn3)CC2C1 (mixture of isomers) [Example 67, methyl (2R,3S,5R)-3-((difluoromethyl)sulfonamido)-5-methyl-2-(((6-(pyrimidin-2-yl)bicyclo[4.1.0]heptan-3-yl)oxy)methyl)pyrrolidine-1-carboxylate] | 101 | 3.4 | 
COC(=O)N1[C@H](C)C[C@H](NS(C)(=O)=O)[C@@H]1COC1CCC2(c3ncc(C#N)cn3)CC2C1 (mixture of isomers) [Example 188, methyl (2R,3S,5R)-2-(((6-(5-cyanopyrimidin-2-yl)bicyclo[4.1.0]heptan-3-yl)oxy)methyl)-5-methyl-3-(methylsulfonamido)pyrrolidine-1-carboxylate] | 96.9 | 195 | 
COC(=O)N1[C@H](C)C[C@H](NS(C)(=O)=O)[C@@H]1COC1CCC2(c3ccccc3)CC2C1 (single isomer, unassigned) [Example 1] | 99.6 | 20.6 | 
COC(=O)N1[C@H](C)C[C@H](NS(C)(=O)=O)[C@@H]1COC1CCC2(c3ccccc3)CC2C1 (single isomer, unassigned) [Example 2] |  | 176 | 100.5
COC(=O)N1[C@H](C)C[C@H](NS(=O)(=O)N(C)C)[C@@H]1COC1CCC2(c3cnccn3)CC2C1 (single isomer, unassigned) [Example 11] | 96.1 |  | 
COC(=O)N1[C@H](C)C[C@H](NS(=O)(=O)N(C)C)[C@@H]1COC1CCC2(c3cnccn3)CC2C1 (single isomer, unassigned) [Example 14] |  |  | 93.5
COC(=O)N1[C@H](C)C[C@H](NS(C)(=O)=O)[C@@H]1COC1CCC2(c3ncccn3)CC2C1 (single isomer, unassigned) [Example 16] |  | 16.4 | 102.2
COC(=O)N1[C@H](C)C[C@H](NS(C)(=O)=O)[C@@H]1COC1CCC2(c3ncccn3)CC2C1 (single isomer, unassigned) [Example 17] |  | 2260 | 89.7
COC(=O)N1[C@H](C)C[C@H](NS(C)(=O)=O)[C@@H]1CO[C@H]1CC[C@@]2(c3ncccn3)C[C@H]2C1 (single isomer, unassigned) [Example 19] |  |  | 100.9
COC(=O)N1[C@H](C)C[C@H](NS(C)(=O)=O)[C@@H]1CO[C@@H]1CC[C@]2(c3ncccn3)C[C@@H]2C1 (single isomer, unassigned) [Example 20] |  |  | 99.7
COC(=O)N1CC[C@H](NS(C)(=O)=O)[C@@H]1CO[C@H]1CC[C@@]2(c3ncccn3)C[C@H]2C1 (single isomer, unassigned) [Example 24] |  | 238 | 99.8
COC(=O)N1CC[C@H](NS(C)(=O)=O)[C@@H]1CO[C@@H]1CC[C@]2(c3ncccn3)C[C@@H]2C1 (single isomer, unassigned) [Example 25] |  |  | 94.7
CC(C)OC(=O)N1[C@H](C)C[C@H](NS(=O)(=O)C(F)F)[C@@H]1CO[C@H]1CC[C@@]2(c3ncc(Cl)cn3)C[C@H]2C1 (single isomer, unassigned) [Example 81] | 100 | 4.5 | 
COC(=O)N1[C@H](C)C[C@H](NS(=O)(=O)CF)[C@@H]1CO[C@H]1CC[C@@]2(c3ncc(Cl)c(OC)n3)C[C@H]2C1 (single isomer, unassigned) [Example 84] | 101 | 4.6 | 
COC(=O)N1[C@H](C)C[C@H](NS(=O)(=O)CF)[C@@H]1CO[C@H]1CC[C@@]2(c3ncc(Br)cn3)C[C@H]2C1 (single isomer, unassigned) [Example 87] | 102 | 2 | 
CC(C)OC(=O)N1[C@H](C)C[C@H](NS(=O)(=O)C(F)F)[C@@H]1CO[C@H]1CC[C@@]2(c3ncc(F)cn3)C[C@H]2C1 (single isomer, unassigned) [Example 90] | 101 | 1.2 | 
CC(C)OC(=O)N1[C@H](C)C[C@H](NS(=O)(=O)C(F)F)[C@@H]1CO[C@@H]1CC[C@]2(c3ncc(F)cn3)C[C@@H]2C1 (single isomer, unassigned) [Example 91] | 102 | 3.3 | 
CC(C)OC(=O)N1[C@H](C)C[C@H](NS(=O)(=O)C(F)F)[C@@H]1COC1CCC2(c3ncc(F)cn3)CC2C1 (single isomer, unassigned) [Example 92] |  | 775 | 73.2
CC(C)OC(=O)N1[C@H](C)C[C@H](NS(=O)(=O)C(F)F)[C@@H]1COC1CCC2(c3ncc(F)cn3)CC2C1 (single isomer, unassigned) [Example 93] |  | 458 | 40.6
CC(C)OC(=O)N1[C@H](C)C[C@H](NS(=O)(=O)CF)[C@@H]1CO[C@H]1CC[C@@]2(c3ncc(Cl)cn3)C[C@H]2C1 (single isomer, unassigned) [Example 95] | 101 | 1.8 | 
CC(C)OC(=O)N1[C@H](C)C[C@H](NS(=O)(=O)CF)[C@@H]1CO[C@@H]1CC[C@]2(c3ncc(Cl)cn3)C[C@@H]2C1 (single isomer, unassigned) [Example 96] | 103 | 6.5 | 
CC(C)OC(=O)N1[C@H](C)C[C@H](NS(=O)(=O)CF)[C@@H]1CO[C@@H]1CC[C@]2(c3ncc(F)cn3)C[C@@H]2C1 (single isomer, unassigned) [Example 99] | 103 | 2.5 | 
CC(C)OC(=O)N1[C@H](C)C[C@H](NS(=O)(=O)CF)[C@@H]1CO[C@H]1CC[C@@]2(c3ncc(F)cn3)C[C@H]2C1 (single isomer, unassigned) [Example 100] | 100 | 1 | 
CC(C)OC(=O)N1[C@H](C)C[C@H](NS(=O)(=O)CF)[C@@H]1CO[C@H]1CC[C@@]2(c3ncc(Br)cn3)C[C@H]2C1 (single isomer, unassigned) [Example 103] | 101 | 4.3 | 
CC(C)OC(=O)N1[C@H](C)C[C@H](NS(=O)(=O)CF)[C@@H]1CO[C@@H]1CC[C@]2(c3ncc(Br)cn3)C[C@@H]2C1 (single isomer, unassigned) [Example 104] | 102 | 34.5 | 
CC(C)OC(=O)N1[C@H](C)C[C@H](NS(=O)(=O)CF)[C@@H]1COC1CCC2(c3ncc(Br)cn3)CC2C1 (single isomer, unassigned) [Example 105] | 91.7 | 233 | 
